Key:
[1] = tested on: NAMPT and NMNAT1; experiment: Cell-free metabolism by NAMPT and NMNAT1; assay type: biochemical; settings: role: substrate, 200 μM compound, NMNAT1, 0.4 mM PRPP, 2.5 mM ATP, 37 °C
Procedure: (§1) We reasoned that 1 and 9 would likely be metabolized to 1-mononucleotide (1-MN) and 9-mononucleotide (9-MN) by NAMPT and then to 1-adenine dinucleotide (1-AD) and 9-adenine dinucleotide (9-AD) by NMNAT1. Thus, we analyzed extracts from cell-free reactions that co-incubate each compound with NAMPT, NMNAT1, PRPP, and ATP by high-resolution mass spectrometry to identify these putative metabolites based on exact mass. […] To test whether these compound metabolites were also produced in cells, we analyzed metabolic extracts from cells treated with either 1 or 9.
A reaction mixture containing 50 mM Tris pH 8, 0.4 mM PRPP, 2.5 mM ATP, 12 mM MgCl2, 0.02% BSA, 1 μM NAMPT, 100 nM NMNAT1 and 200 μM compound 9 or 1 was incubated at 37 °C. Fifty microliter aliquots were quenched at the indicated time points by adding two volumes of acetonitrile with 0.1% formic acid and vortexing for 15 seconds. After incubation for ten minutes at room temperature, samples were centrifuged at 13,200 rpm for 5 minutes. The supernatants were filtered through 0.2 μm PVDF filters (Sigma #SLGV004SL) and analyzed by LC-MS/TOF. […]
(§2) Data analysis for TOF data was performed using SCIEX MultiQuant software version 3.0.3. For each of the compounds monitored, the theoretical exact m/z was calculated. […]

[2] = tested on: NMNAT1 or alcohol dehydrogenase; experiment: Counter screen with NMN in place of NAM; assay type: biochemical; settings: role: inhibitor; 50 μM NMN substituted for NAM
Procedure: NAMPT activity was measured using a coupled-enzyme assay previously described [Revollo, 2014]. Briefly, reactions consisting of 50 mM Tris pH 8, 0.4 mM PRPP, 2.5 mM ATP, 12 mM MgCl2, 0.02% BSA, 1 μM NAMPT, 77 nM NMNAT1, 10 mM semicarbazide, 30 μg/ml alcohol dehydrogenase were set up in a 384-well plate (50 μl/well). […] The reactions were started by addition of 50 μM NAM. Fluorescence due to NADH formation by alcohol dehydrogenase was measured in a BioTek Cytation 5 plate reader (Agilent, USA) set up for excitation at λ=340 nm and detection of emission at λ=460 nm. To counter screen for NMNAT1 or alcohol dehydrogenase inhibition, the assay was set up above but substituting 50 μM NMN (substrate for NMNAT1) for NAM. No inhibition of was observed under these conditions.

[3] = tested on: S462 cells; experiment: Metabolism in S462 cells; assay type: cell-based, human; settings: 500 nM compound
Procedure: as §1
Prior to the experiment, cells were cultured in low-Nam DMEM for at least 1 passage (3 days) to deplete intracellular Nam. 15,000 cells were plated in a 96-well plate with 100 μL low-Nam media. At appropriate time points, 500 nM 1 or 9, or equal volume of vehicle (DMSO) were added using TECAN. 200 μL of acetonitrile with 0.1% formic acid were added to the assayed wells. For the 0-hour time point, compound or vehicle was added after the addition of acetonitrile and formic acid. […] The supernatants were filtered through 0.2 μm PVDF filters and analyzed by LC-MS/TOF. […]
as §2

inhibition in counter screen [2]	levels of parent compound over time in cells [3]	Structure (SMILES)	levels of parent compound over time [1]
No inhibition	time-dependent depletion	O=C(Nc1cccnc1)c1cccs1 [Compound 1, N-(pyridin-3-yl)thiophene-2-carboxamide]	time-dependent decrease
No inhibition	time-dependent depletion	O=C(Nc1cccs1)c1cccnc1 [Compound 9, N-(Thiophen-2-yl)nicotinamide]	time-dependent decrease

Source: patent publication US20260356803A1, “Nicotinamide derivatives” (Board of Regents, The University of Texas System, priority 2024, published 2026)
